Data: patent publication US7109332B2, “2,4-dioxo-3-quinazolinylaryl sulfonylureas” (Portola Pharmaceuticals, Inc., priority 2003, dated 2006)

Each compound was assayed on ADP-induced human platelet aggregation (assay: Inhibition of ADP-mediated platelet aggregation in vitro (PRP assay)). Details: 2 μM ADP, 96-well microtiter assay.
Assay type: cell-based
Protocol: I. Inhibition of ADP-Mediated Platelet Aggregation In Vitro
The effect of testing the compound according to the invention on ADP-induced human platelet aggregation is preferably assessed in 96-well microtiter assay (see generally the procedures in Jantzen, H. M. et al. (1999) Thromb. Hemost. 81:111–117). Human venous blood is collected from healthy, drug-free volunteers into ACD (85 mM sodium citrate, 111 mM glucose, 71.4 mM citric acid) containing PGI2 (1.25 ml ACD containing 1.6 μM PGI2/10 ml blood; PGI2 was from Sigma, St. Louis, Mo.). Platelet-rich plasma (PRP) is prepared by centrifugation at 160×g for 20 minutes at room temperature. Washed platelets are prepared by centrifuging PRP for 10 minutes at 730×g and resuspending the platelet pellet in CGS (13 mM sodium citrate, 30 mM glucose, 120 mM NaCl; 2 ml CGS/10 ml original blood volume) containing 1U/ml apyrase (grade V, Sigma, St. Louis, Mo.). After incubation at 37° C. for 15 minutes, the platelets are collected by centrifugation at 730×g for 10 minutes and resuspended at a concentration of 3×10^8 platelets/ml in Hepes-Tyrode's buffer (10 mM Hepes, 138 mM NaCl, 5.5 mM glucose, 2.9 mM KCl, 12 mM NaHCO3, pH 7.4) containing 0.1% bovine serum albumin, 1 mM CaCl2 and 1 mM MgCl2. This platelet suspension is kept >45 minutes at 37° C. before use in aggregation assays.
Inhibition of ADP-dependent aggregation is preferably determined in 96-well flat-bottom microtiter plates using a microtiter plate shaker and plate reader similar to the procedure described by Frantantoni et al., Am. J. Clin. Pathol. 94, 613 (1990). All steps are performed at room temperature. The total reaction volume of 0.2 ml/well includes in Hepes-Tyrodes buffer/0.1% BSA: 4.5×10^7 apyrase-washed platelets, 0.5 mg/ml human fibrinogen (American Diagnostica, Inc., Greenwich, Conn.), serial dilutions of test compounds (buffer for control wells) in 0.6% DMSO. After about 5 minutes preincubation at room temperature, ADP is added to a final concentration of 2 μM which induces submaximal aggregation. Buffer is added instead of ADP to one set of control wells (ADP^− control). The OD of the samples is then determined at 490 nm using a microtiter plate reader (Softmax, Molecular Devices, Menlo Park, Calif.) resulting in the 0 minute reading. The plates are then agitated for 5 min on a microtiter plate shaker and the 5 minute reading is obtained in the plate reader. Aggregation is calculated from the decrease of OD at 490 nm at t=5 minutes compared to t=0 minutes and is expressed as % of the decrease in the ADP control samples after correcting for changes in the unaggregated control samples.
The table below provides activity for selected compounds of the invention, evaluated as described above. In the table below, activity in the PRP assay is provided as follows: +++, IC50<10 μM; ++, 10 μM<IC50<30 μM; and +, IC50>30 μM.
Work on `O=C(NS(=O)(=O)c1ccc(Cl)s1)c1ccc(-n2c(=O)[nH]c3cc(NCc4ccc(F)cc4)ccc3c2=O)cc1F` [Example 113, 4-(7-(4-fluorobenzylamino)-2,4-dioxo-1,2-dihydroquinazolin-3(4H)-yl)-N-(5-chlorothiophen-2-ylsulfonyl)-2-fluorobenzamide] yielded an IC50 of under 10 µM. `O=C(Nc1ccc(-n2c(=O)[nH]c3cc(NCc4ccc(Cl)s4)ccc3c2=O)cc1)NS(=O)(=O)c1ccc(Cl)s1` [Example 51] was tested, and the IC50 was under 10 µM. `O=C(Nc1ccc(-n2c(=O)[nH]c3cc(NCc4ccc(F)cc4)ccc3c2=O)cc1)NS(=O)(=O)c1ccc(Cl)s1` [Example 21] showed an IC50 of under 10 µM. Work on `Cc1cc(-n2c(=O)[nH]c3cc(NCc4ccc(F)cc4)ccc3c2=O)ccc1NC(=O)NS(=O)(=O)c1ccc(Cl)s1` [Example 5, 1-(4-(7-(4-fluorobenzylamino)-2,4-dioxo-1,2-dihydroquinazolin-3(4H)-yl)-2-methylphenyl)-3-(5-chlorothiophen-2-ylsulfonyl)urea] yielded an IC50 of under 10 µM. Compound `O=C(Nc1ccc(-n2c(=O)[nH]c3cc(NCc4ccc(F)cc4F)ccc3c2=O)cc1)NS(=O)(=O)c1ccc(Cl)s1` [Example 102] has an IC50 of over 30 µM. For `Cc1cc(NC(=O)NS(=O)(=O)c2cccs2)ccc1-n1c(=O)[nH]c2cc(NCc3ccc(Cl)cc3)ccc2c1=O` [Example 16], the IC50 was under 10 µM. Compound `O=C(Nc1ccc(-n2c(=O)[nH]c3cc(NCc4cncs4)ccc3c2=O)cc1)NS(=O)(=O)c1ccc(Cl)s1` [Example 61] has an IC50 of 10 to 30 µM. Compound `COc1cccc(CNc2ccc3c(=O)n(-c4ccc(NC(=O)NS(=O)(=O)c5ccc(Cl)s5)cc4)c(=O)[nH]c3c2)c1` [Example 41] has an IC50 of 10 to 30 µM. Compound `Cc1csc(CNc2ccc3c(=O)n(-c4ccc(NC(=O)NS(=O)(=O)c5ccc(Cl)s5)cc4)c(=O)[nH]c3c2)c1` [Example 53] has an IC50 of 10 to 30 µM. `Cn1ccnc1CNc1ccc2c(=O)n(-c3ccc(NC(=O)NS(=O)(=O)c4ccc(Cl)s4)cc3)c(=O)[nH]c2c1` [Example 77] showed an IC50 of over 30 µM. With `Cc1c(F)cccc1CNc1ccc2c(=O)n(-c3ccc(NC(=O)NS(=O)(=O)c4ccc(Cl)s4)cc3)c(=O)[nH]c2c1` [Example 100] the IC50 was under 10 µM. Compound `O=C(NS(=O)(=O)c1ccc(Cl)s1)c1ccc(-n2c(=O)[nH]c3cc(NCc4ccc(F)cc4)ccc3c2=O)cc1` [Example 106, 4-(7-(4-fluorobenzylamino)-2,4-dioxo-1,2-dihydroquinazolin-3(4H)-yl)-N-(5-chlorothiophen-2-ylsulfonyl)benzamide] has an IC50 of under 10 µM. In the case of `O=C(Nc1ccc(-n2c(=O)[nH]c3cc(NCc4nc5ccccc5s4)ccc3c2=O)cc1)NS(=O)(=O)c1ccc(Cl)s1` [Example 94], the IC50 is reported as over 30 µM. Compound `O=C(Nc1ccc(-n2c(=O)[nH]c3cc(NCc4ccccc4)ccc3c2=O)cc1)NS(=O)(=O)c1ccc(Cl)s1` [Example 3] has an IC50 of under 10 µM. In the case of `Cc1nc(C)c(CNc2ccc3c(=O)n(-c4ccc(NC(=O)NS(=O)(=O)c5ccc(Cl)s5)cc4)c(=O)[nH]c3c2)s1` [Example 65], the IC50 is reported as over 30 µM. `O=C(Nc1ccc(-n2c(=O)[nH]c3cc(NCc4ccc(Cl)cc4)ccc3c2=O)cc1)NS(=O)(=O)c1ccc(Cl)s1` [Example 12] showed an IC50 of under 10 µM. With `O=C(Nc1ccc(-n2c(=O)[nH]c3cc(NCc4ccc(Cl)o4)ccc3c2=O)cc1)NS(=O)(=O)c1ccc(Cl)s1` [Example 72] the IC50 was 10 to 30 µM. With `O=C(Nc1ccc(-n2c(=O)[nH]c3cc(NCc4ccsc4)ccc3c2=O)cc1)NS(=O)(=O)c1ccc(Cl)s1` [Example 57] the IC50 was under 10 µM.
